Data taken from PubChem BioAssay AID2423 (Broad Institute, 2010).
Inconclusive results are not listed. Active and inactive are the calls of the source. How the calls were made is not given here.

Tested on: C. albicans CaCi-8 + fluconazole, Alamar Blue growth, 48 h
Test: resistant C. albicans growth inhibition with fluconazole, dose response, CaCi-8 strain, Alamar Blue fluorescence (AID 2423)

Row | Structure (SMILES) | EC50
1 | COc1cccc(/C=N/NC(=O)c2[nH]nc3c2CCc2ccccc2-3)c1O | 0.857 µM
2 | CCc1nn(CCCC(=O)NCc2ccc(C)cc2)c(=O)c2cc3occc3n12 | > 16 µM (inactive)
3 | CC(=S)/C=C1\Sc2ccccc2N1C | 5.57 µM
4 | CC12CCC(C(=O)N(NC(=O)c3ccccc3O)C1=O)C2(C)C (stereo not drawn) | 13.9 µM
5 | CC/C(=N/NC(=O)c1ccccc1O)c1c(C)[nH]n(-c2ccccc2)c1=O | 0.754 µM
6 | CC(c1ccccc1)N1CCn2c(nc3cc(NS(C)(=O)=O)ccc32)C1 (stereo not drawn) | > 16 µM (inactive)
7 | CSc1ccc(/C=C/C(=O)Nc2ccccc2)cc1 | > 15 µM (inactive)
8 | COC(=O)[C@@H]1CCCN1Cc1nc(Cc2ccccc2F)no1 | > 16 µM (inactive)
9 | CCOc1cc(/C=N/NC(=O)c2cccnc2)ccc1OCC(N)=O | > 15 µM (inactive)
10 | O=C(COS(=O)c1ccccc1)Nc1cc(Cl)ccc1N1CCOCC1 (stereo not drawn) | 3.11 µM
11 | COc1cccc(-n2c(SCc3cc(=O)oc4cc(O)c(O)cc34)nc3ccccc3c2=O)c1 | 5.67 µM
12 | CCN(CC)c1nc(-c2ccccn2)nc(-c2ccccc2)c1C#N | 4.19 µM
13 | Cc1ccc(Nc2nc(CSc3nnc(-c4ccncc4)n3-c3ccccc3C)cs2)cc1 | > 16 µM (inactive)
14 | O=c1c2cc(Br)ccc2nc(-c2ccc([N+](=O)[O-])cc2)n1O | 1.14 µM
15 | C/C(CC(=O)Nc1cc(C)ccn1)=N\NC(=O)c1cccc(C)c1O | > 16 µM (inactive)
16 | Oc1c(C(c2ccc(Cl)cc2)N2CCCC2)cc(Cl)c2cccnc12 (stereo not drawn) | 0.686 µM
17 | C/C(=N\NC(=O)c1cc(-c2cccnc2)nc2ccccc12)c1ccc(O)cc1O | 1.45 µM
18 | COc1ccc(C2C(C#N)=C(N)Oc3c2ccc2cccnc32)cc1OC (stereo not drawn) | 0.952 µM
19 | COc1ccc(-c2nc(CN3CCN(c4cc(C)nc(C)c4)CC3)c(C)o2)c2ccccc12 | 2.49 µM
20 | COc1ccc(C)cc1N=Nc1ccc(O)c2ncccc12 | 0.656 µM
21 | NNC(=S)Nc1cccc(Cl)c1 | 8.45 µM
22 | COc1ccc(C(=O)NNC(=S)NC(=O)c2ccc(Cl)cc2)cc1 | 0.928 µM

Row | Structure (SMILES) | EC50
23 | Cn1c(/C=N/Nc2nc3ccccc3[nH]2)nc2ccccc21 | > 16 µM (inactive)
24 | O=C(NCc1cccnc1)c1ccc(-c2cccc(Cl)c2Cl)o1 | 1.76 µM
25 | CCCCOP(=O)(c1ccc(N(C)C)cc1)C(O)c1ccccc1F (stereo not drawn) | 4.66 µM
26 | C[C@H]([C@@H](N)C(=O)N[C@@H](C(=O)O)[C@@H]1O[C@H](n2ccc(=O)[nH]c2=O)[C@@H](O)[C@H]1O)[C@@H](O)c1ccc(O)cn1 | 3.16 µM
27 | Cc1cccc(-n2nc(C(=O)c3ccco3)cc(-c3nc4ccccc4[nH]3)c2=N)c1 | 6.09 µM
28 | CCOC(=O)c1[nH]c2ccc(F)cc2c1NC(=O)c1ccccc1C(=O)O | > 15 µM (inactive)
29 | COc1ccc(NS(=O)(=O)c2ccc3ccccc3c2)c2ncccc12 | 3.79 µM
30 | COc1ccc(/C=C/c2cc(-c3ccc(C)cc3)o[n+]2C)cc1 | 1.65 µM
31 | Cc1ccc(NC(=S)c2nc3ccccc3[nH]2)cc1 | > 16 µM (inactive)
32 | O=Nc1c(O)n(Cc2ccc(Cl)c(Cl)c2)c2ccccc12 | 5.9 µM
33 | Cc1sc(NC(=O)c2ccc(Br)s2)c(C(N)=O)c1C | 0.952 µM
34 | Cc1onc(-c2c(F)cccc2Cl)c1C(=O)NNC(=O)C1CCN(Cc2ccccc2)CC1 | > 15 µM (inactive)
35 | CC(=O)c1c(C)nc(-c2cccc([N+](=O)[O-])c2)n1O | 3.29 µM
36 | CCN(CC)c1ccc(/C=C/c2ccc3ccc(OC)cc3[n+]2CC)cc1 | 0.149 µM
37 | COc1cccc(/C=N/Nc2cc(N3CCOCC3)ncn2)c1O | 6.27 µM
38 | O=c1c2cc(Br)ccc2nc(-c2cccc(C(F)(F)F)c2)n1O | 1.04 µM
39 | CCn1c(=O)c(C(=O)Nc2ncccc2C)c(O)c2ccccc21 | 3.35 µM
40 | COc1cccc(N=Nc2ccc3cccnc3c2O)c1 | 0.43 µM
41 | Oc1ccc(N=Nc2ccccc2C(F)(F)F)c2cccnc12 | 1.08 µM
42 | CCn1cc(C(=O)OCC(=O)Nc2cccc(Cl)c2Cl)c(=O)c2ccc(C)nc21 | > 15 µM (inactive)
43 | COc1cccc(/C=N/Nc2ccc([N+](=O)[O-])cn2)c1O | 1.5 µM
